This note sets out measurements from patent US5373089A, “Oxytocin antagonist” (Northwestern University, priority 1993, dated 1994).

Assay [1] deals with ADH. The experiment in a line: ADH bioassay (alteration in urine output due to ADH). Type of assay: in vivo. As to conditions: for ADH Bioassay pA2: in vivo. The protocol: The above compound was also tested for antagonism to vasopressin. Anti-ADH activity can be determined by measuring the alteration in urine output due to ADH in the presence and absence of the antagonist. A suitable ADH-assay is described in Sawyer, et al., Endocrinology, 63:694 (1958). […] The ratio of oxytocin antagonism to ADH antagonism was very high, viz. over 1, 866, as compared with 200 for the compositions disclosed in the parent applications.
The anti-ADH activity is measured by the alteration in urine […] in the presence and absence of the antagonist to determine the specificity of the antagonist. The anti-ADH assay is described in Sawyer, et al., Endocrinology, 63:694 (1958).

Assay [2] deals with pregnant baboon. Nature of the assay: Oxytocin challenge test in tethered pregnant baboon (antagonists-response interval). Conditions: for ARI (OTA/ANTI): ratio to ANTAG I. The format is in vivo. The protocol:
The baboon is an excellent animal model because of its physiologic and anatomic similarity to humans (see articles by our laboratory: Am J Obstet Gynecol. 163:1815-1882, 1990; Am J Obstet Gynecol 165:456-560, 1991; Am J Obstet Gynecol 165:1487-1498, 1991; articles by other laboratories: Endocrine Reviews 11:124-150, 1990; 11:151-176, 1990). Pregnant tethered baboons were studied between 130 to 145 days of pregnancy Delivery=day 184). The oxytocin antagonists were administered as a single bolus injection of 1 mg intra-arterially followed 1 minute later by the infusion of oxytocin. […] This oxytocin antagonist was not produced in our laboratory and is not an oxytocin analog.

Assay [3] concerns the target T1, HUMAN OXYTOCIN RECEPTOR (Homo sapiens, UniProt P30559).
T1 construct: Oxytocin receptors (OTrs) reside on the cell membrane and are present at high concentrations at the end of pregnancy in uterine tissue; from tissue; host or cells: human myometrium from cesarean section patients, sucrose-gradient membrane fraction
T1 sequence (P30559 1-389): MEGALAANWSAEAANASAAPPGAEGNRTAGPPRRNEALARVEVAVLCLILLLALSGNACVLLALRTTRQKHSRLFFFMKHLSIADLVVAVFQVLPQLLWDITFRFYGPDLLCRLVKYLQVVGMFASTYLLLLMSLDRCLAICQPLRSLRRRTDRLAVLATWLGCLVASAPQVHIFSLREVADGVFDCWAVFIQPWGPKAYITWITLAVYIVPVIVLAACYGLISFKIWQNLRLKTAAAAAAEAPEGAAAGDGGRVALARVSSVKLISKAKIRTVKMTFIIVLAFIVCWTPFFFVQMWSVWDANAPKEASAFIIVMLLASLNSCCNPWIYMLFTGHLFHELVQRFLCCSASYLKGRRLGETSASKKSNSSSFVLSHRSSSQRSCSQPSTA
Nature of the assay: Oxytocin receptor assay, human myometrial tissue membranes, 3H-OT competition. The format is binding. How it is done: Human myometrial tissue was collected from patients at the time of cesarian section after informed consent. The tissue was rinsed in cold buffer, cut into small pieces and frozen at -70° C. until homogenization.
Oxytocin receptors (OTrs) reside on the cell membrane and are present at high concentrations at the end of pregnancy in uterine tissue. Frozen tissue is homogenized in Tris buffer, the homogenate filtered, and the filtrate centrifuged at 1000 g for 15 minutes at 4° C. The supernatant is centrifuged at 40,000 g for 30 minutes and the pellet containing the cell membranes resuspended in 10% sucrose. Density gradient ultracentrifugation is then performed by placing the 10 % sucrose suspension on top of 35% sucrose and centrifuging for 30 minutes in a swing bucket rotor at 105,000 g. The membranes at the interface of the 10%/35% sucrose are removed and resuspended in Tris buffer containing EDTA for 30 minutes. This procedure removes divalent cation and results in dissociation of any endogenously bound OT to the receptor. This mixture is then centrifuged for 15 minutes at 100,000 g and the pellet containing the membrane OTrs resuspended in Tris, PMSF, Mg^++, buffer by sonication.
The binding assay consist of 0.1 ml of 20,000 cmp of tritium labeled OT (New England Nuclear, […]), 0.1 ml of OT antagonist added at increasing concentration, 0.25 ml of buffer and 0.05 ml of membrane (70-150 ug protein). A nonspecific tube has 100× of cold OTA added to it. The incubation is for 30 minutes at 30 ° C. The membrane is pelleted by centrifugation in ultraclear mini tubes (5×41 mm) for 30 minutes at 105,000 g. The resulting pellet containing the bound ^3 H-OT is dissolved in 0.1N NaOH at 45 ° C. for 30 minutes and this mixture is then placed in liquid scintillation counting fluid and counted for dpms in a scintillation counter.
The data is analyzed by nonlinear curve fitting methods using McPherson's EBDA (J Pharmacol Methods 14:213-228, 1985) and Munson and Rodbard's LIGAND (Anal Biochem 107:220-239, 1980) program for saturation and competition analysis for determining Kds and Kis.

Starred links: 1 amine or outer side, 2 acyl side, 3 side chain; linkers in the order of their positions; H or OH if unused. Positions of bridges follow the written chain, without caps; N, C: chain ends. Non-standard residues stand in square brackets, D forms with d. Residues, ends and D or L forms follow the SMILES beside them. X1 = O=C(CC1(S[*:2])CCCCC1)[*:1] A value given as a limit tells only on which side of the number the result lay.

Take “[(S)Pmp^1,D-Trp^2,Pen^6,Arg^8 ] oxytocin [Compound D]”: the “ADH Bioassay pA2” value in assay [1] is reported as < 5.75. Further, the “activity as a vasopressin antagonist” value in assay [1] (result in words) is given as “very low activity”. Also, the “ARI (antagonists-response interval)” value in assay [2] (1 mg single bolus intra-arterially, then oxytocin infusion, pregnant baboon day 130-145) was 7856. In addition, the “time for which the response to oxytocin was blocked” value in assay [2] (one mg, pregnant baboon) is “greater than 24 hours”. Moreover, the entries for the “ARI (OTA/ANTI)” value in assay [2], in assay [2] (listed as ANTAG III) and in assay [2] (listed as compound D) were 133, 133 and “about 130”, respectively.

For the compound `CC[C@H](C)[C@@H]1NC(=O)[C@H](Cc2ccccc2)NC(=O)[C@@H](Cc2c[nH]c3ccccc23)NC(=O)CC2(CCCCC2)SSC[C@@H](C(=O)N2CCC[C@H]2C(=O)N[C@@H](CCCNC(=N)N)C(=O)NCC(N)=O)NC(=O)[C@H](CC(N)=O)NC1=O` [Compound B, [Pmp^1,D-Trp^2,Phe^3,Ile^4,Arg^8] oxytocin] ([dW]FINCPRG-NH2; linker N-5 via X1), the “ADH Bioassay pA2” value in assay [1] was determined as 7.40. Binding in assay [3] was characterised by a dissociation constant (Kd) of 19.6 nM.
